Molecules are shown by their SMILES.

In assay [1] the target is T1, human TDO2 (Homo sapiens (Human), UniProt P48775). As to the kind of experiment: Assay for TDO2 enzymatic activity determination. In kind it is biochemical. As to conditions: human recombinant TDO2, L-Trp 1 mM, kynurenine absorbance at 480 nm. On the procedure: The compounds of formula I inhibit the enzymatic activity of human TDO2.
To measure the TDO2 activity, the procedure described in Dolusic et al. J. Med. Chem.; 2011, 54, […] was adapted: the reaction mixture contained (final concentrations) potassium phosphate buffer (50 mM, pH 7.5), ascorbic acid (0.25 M), methylene blue (0.125 μM), catalase (40 units/mL, from bovine liver, Sigma), and human recombinant TDO2 enzyme (prepared as described in Dolusic et al. J. Med. Chem.; 2011, 54, 5320-5334; 0.9 μg) without or with the compounds of the present invention at the indicated concentrations (total volume 112.5 μL). The reaction was initiated by the addition of 37.5 μL of L-Trp (final concentration 1 mM) at room temperature. The reaction was conducted at room temperature during one hour and stopped by the addition of 30 μL of 30% (w/v) trichloroacetic acid.
To convert N-formylkynurenine into kynurenine, the reaction mixture was incubated at 65° C. for 30 min. Then 150 μL of the reaction mixture was mixed with 120 μL of 2.5% (w/v) 4-(dimethylamino)-benzaldehyde in acetic acid and incubated for 5 min at room temperature. Kynurenine concentrations were determined by measuring the absorbance at 480 nm. A standard curve was made with pure kynurenine. The TDO activity was measured as described above using ten serial concentrations of the compounds of the present invention. Data were fitted using the Prism™ software (GraphPad Software, Inc.) using standard software configurations.

The target in assay [2] is T1, human TDO2. In words: Cellular assay for TDO2 activity, hTDO2-overexpressing P815 cells. In kind it is cell-based. As to conditions: murine mastocytoma P815 cells overexpressing hTDO2, overnight incubation, kynurenine in supernatant. On the procedure:
The compounds of Formula I inhibit the activity of human TDO2 in cells.
The assay (adapted from Pilotte L et al., Proc Natl Acad Sci USA, 2012, 109(7), 2497-502) was performed in 96-well flat bottom plates seeded with murine mastocytoma P815 cells overexpressing hTDO2 (prepared as described in Pilotte et al., PNAS, 2012, 109(7), 2497-2502), at a concentration of 5×10^4 cells/well in a final volume of 200 μL. To determine TDO or IDO activity, the cells were incubated overnight at 37° C. at 5% CO2 in IMDM (Invitrogen) supplemented with 2% FBS and 2% penicillin/streptomycin in the presence of the compounds of the present invention, at different concentrations. The cells may be obtained from the American Type Cuylture Collecion [ATCC® TIB-64™ or commercially, e.g., from Sigma-Aldrich or Life Technologies.]
(§1) The plates were then centrifuged 5 min at 1000 rpm, and 100 μL of the supernatant were collected in a conical plate, 30 uL of TCA 30% were added and a further centrifugated at 3000×g for 10 minutes. 100 μL of the supernatant were collected in a flat bottomed plate and 100 μL of 2% (w/v) 4-(dimethylamino)-benzaldehyde in acetic acid and incubated for 5 min at room temperature. Kynurenine concentrations were determined by measuring the absorbance at 480 nm. A standard curve was made with pure kynurenine. The TDO activity was measured as described above using ten serial concentrations of the compounds of the present invention. Data were fitted using the Prism™ software (GraphPad Software, Inc.) using standard software configurations.

In assay [3] the target is TDO2 (Mus musculus (Mouse), UniProt P48776). As to the kind of experiment: Pharmacodynamic assay for TDO2 in vivo activity: increase of blood tryptophan levels in mice. As to conditions: female BALB/c mice, 2 h. From the text:
The compounds of the present invention increase the amount of Tryptophan in mouse blood.

For assay [4], the target named is T1, human TDO2. In words: Cellular assay for TDO2 activity, A172 cells naturally expressing hTDO2. The class given is cell-based. The following applies: human glioblastoma A172 cells, overnight incubation, kynurenine in supernatant. On the procedure:
A172 is a cell line derived from human brain glioblastoma cells.
To determine TDO, the cells were incubated overnight at 37° C. at 5% CO2 in IMDM (Invitrogen) supplemented with 2% FBS and 2% penicillin/streptomycin in the presence of the compounds of the present invention, at different concentrations.
as §1

T1 sequence (P48775 whole entry): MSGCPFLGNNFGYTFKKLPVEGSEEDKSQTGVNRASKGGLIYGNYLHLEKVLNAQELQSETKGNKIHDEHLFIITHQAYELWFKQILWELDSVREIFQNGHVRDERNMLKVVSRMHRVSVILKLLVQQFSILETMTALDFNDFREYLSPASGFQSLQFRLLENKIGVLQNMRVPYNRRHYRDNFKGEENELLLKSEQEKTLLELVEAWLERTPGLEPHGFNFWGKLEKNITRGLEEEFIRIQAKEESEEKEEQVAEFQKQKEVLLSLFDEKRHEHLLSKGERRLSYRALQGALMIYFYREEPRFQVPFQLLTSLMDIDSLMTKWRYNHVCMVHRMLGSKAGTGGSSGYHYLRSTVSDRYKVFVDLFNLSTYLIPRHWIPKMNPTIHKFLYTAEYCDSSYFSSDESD
Sequence of TDO2 (P48776 whole entry): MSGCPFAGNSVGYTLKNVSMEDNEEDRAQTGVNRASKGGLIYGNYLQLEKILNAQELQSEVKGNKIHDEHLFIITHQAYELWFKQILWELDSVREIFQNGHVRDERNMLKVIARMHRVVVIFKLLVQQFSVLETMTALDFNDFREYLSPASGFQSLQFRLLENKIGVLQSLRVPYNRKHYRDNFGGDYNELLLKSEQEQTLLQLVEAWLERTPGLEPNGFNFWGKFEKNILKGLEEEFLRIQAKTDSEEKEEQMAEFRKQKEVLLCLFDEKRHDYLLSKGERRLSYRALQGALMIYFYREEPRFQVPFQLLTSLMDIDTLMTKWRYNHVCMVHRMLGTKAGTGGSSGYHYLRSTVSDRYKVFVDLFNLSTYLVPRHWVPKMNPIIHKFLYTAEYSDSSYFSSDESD

With `Fc1ccc2c(-c3ccc(N4CCOCC4)nc3)c[nH]c2c1` [Example 9, 4-(5-(6-fluoro-1H-indol-3-yl)pyridin-2-yl)morpholine], the IC50 was determined as 540 nM in assay [1] and 210 nM in assay [2].
For the compound `CN1CCN(c2ccc(-c3c[nH]c4cc(F)ccc34)cn2)CC1` [Example 10, 6-fluoro-3-(6-(4-methylpiperazin-1-yl)pyridin-3-yl)-1H-indole], the figures for the IC50 in assay [1] and in assay [2] were 720 nM and 130 nM, respectively.
`NCC(=O)N1CCN(c2ccc(-c3c[nH]c4cc(F)ccc34)cn2)CC1` [Example 11, 2-amino-1-(4-(5-(6-fluoro-1H-indol-3-yl)pyridin-2-yl)piperazin-1-yl)ethanone]: the IC50 in assay [1] and in assay [2] was 650 nM in each case.
Regarding `NCC(=O)NC1CCN(c2ccc(-c3c[nH]c4cc(F)ccc34)cn2)CC1` [Example 13, 2-amino-N-(1-(5-(6-fluoro-1H-indol-3-yl)pyridin-2-yl)piperidin-4-yl)acetamide], the IC50 in assay [1] was found to be 1700 nM; in assay [2], 550 nM.
In the case of `CS(=O)(=O)NC1CCN(c2ccc(-c3c[nH]c4cc(F)ccc34)cn2)CC1` [Example 14, N-(1-(5-(6-fluoro-1H-indol-3-yl)pyridin-2-yl)piperidin-4-yl)methanesulfonamide], the IC50 in assay [1] came to 970 nM; in assay [2], 610 nM; in assay [4], 1800 nM. For the same compound, the results for the “Tryptophan concentration in plasma (average ± standard error of the mean)” value in assay [3] (30 mg/kg oral gavage), in assay [3] (60 mg/kg oral gavage) and in assay [3] (100 mg/kg oral gavage) were 27976 ± 1196, 33862 ± 1529 and 35716 ± 1663, respectively. The “increase of circulating Tryptophan compared to vehicle-treated controls” value in assay [3] (30 mg/kg oral gavage) was 33%; in assay [3] (60 mg/kg oral gavage), 61%; in assay [3] (100 mg/kg oral gavage) it was 70%.
For `Nc1ccc(-c2c[nH]c3cc(F)ccc23)cn1` [Example 15, 5-(6-fluoro-1H-indol-3-yl)pyridin-2-amine], the IC50 in assay [1] was 1100 nM; in assay [2] it was 130 nM.
On to `Fc1ccc2c(-c3ccc(NC4CCNCC4)nc3)c[nH]c2c1` [Example 17, 5-(6-fluoro-1H-indol-3-yl)-N-(piperidin-4-yl)pyridin-2-amine], for which the figures for the IC50 in assay [1] and in assay [2] were 870 nM and 1300 nM, respectively.
With `CS(=O)(=O)NCCCNc1ccc(-c2c[nH]c3cc(F)ccc23)cn1` [Example 21, N-(3-(5-(6-fluoro-1H-indol-3-yl)pyridin-2-ylamino)propyl)methanesulfonamide], the IC50 is 620 nM in assay [1] and 350 nM in assay [2].
Take `CS(=O)(=O)CCCNc1ccc(-c2c[nH]c3cc(F)ccc23)cn1` [Example 22, 5-(6-fluoro-1H-indol-3-yl)-N-(3-(methylsulfonyl)propyl)pyridin-2-amine]: the figures for the IC50 in assay [1] and in assay [2] were 1200 nM and 400 nM, respectively.
For `CN(C)CCNc1ccc(-c2c[nH]c3cc(F)ccc23)cn1` [Example 25, N^1-(5-(6-fluoro-1H-indol-3-yl)pyridin-2-yl)-N^2,N^2-dimethylethane-1,2-diamine], the values for the IC50 in assay [1] and in assay [2] were 540 nM and 140 nM, respectively.
As for `OCCNc1ccc(-c2c[nH]c3cc(F)ccc23)cn1` [Example 27, 2-(5-(6-fluoro-1H-indol-3-yl)pyridin-2-ylamino)ethanol], the figures for the IC50 in assay [1] and in assay [2] were 490 nM and 190 nM, respectively.
In the case of `CS(=O)(=O)CCNc1ccc(-c2c[nH]c3cc(F)ccc23)cn1` [Example 28, 5-(6-fluoro-1H-indol-3-yl)-N-(2-(methylsulfonyl)ethyl)pyridin-2-amine], the IC50 in assay [1] was 1500 nM; in assay [2], 1000 nM.
With `O=C(O)CNc1ccc(-c2c[nH]c3cc(F)ccc23)cn1` [Example 30, 2-(5-(6-fluoro-1H-indol-3-yl)pyridin-2-ylamino)acetic acid], the IC50 in assay [1] stood at 1600 nM; in assay [2], 1500 nM.
As to `NC(=O)CNc1ccc(-c2c[nH]c3cc(F)ccc23)cn1` [Example 31, 2-(5-(6-fluoro-1H-indol-3-yl)pyridin-2-ylamino)acetamide], the IC50 was 790 nM in assay [1] and 120 nM in assay [2].
As to `CNc1ccc(-c2c[nH]c3cc(F)ccc23)cn1` [Example 34, 5-(6-fluoro-1H-indol-3-yl)-N-methylpyridin-2-amine], the IC50 is 290 nM in assay [1], 240 nM in assay [2] and 1600 nM in assay [4].
As for `CC(=O)Nc1ccc(-c2c[nH]c3cc(F)ccc23)cn1` [Example 40, N-(5-(6-fluoro-1H-indol-3-yl)pyridin-2-yl)acetamide], the values for the IC50 in assay [1], in assay [2] and in assay [4] were 1000 nM, 150 nM and 130 nM, respectively.
Turning to `Fc1ccc2c(-c3cccnc3)c[nH]c2c1` [Example 44, 6-fluoro-3-(pyridin-3-yl)-1H-indole], the figures for the IC50 in assay [1], in assay [2] and in assay [4] were 850 nM, 68 nM and 600 nM, respectively.
Consider `Cc1ncccc1-c1c[nH]c2cc(F)ccc12` [Example 45, 6-fluoro-3-(2-methylpyridin-3-yl)-1H-indole], for which the 50% inhibitory concentration (IC50) in assay [1] came out at 860 nM; in assay [2], 220 nM.
Taken in the same sequence, the figures for `Cc1ccncc1-c1c[nH]c2cc(F)ccc12` [Example 46, 6-fluoro-3-(4-methylpyridin-3-yl)-1H-indole] were 13000 nM and 670 nM.
As to `Fc1cc2[nH]cc(-c3cccnc3)c2cc1F` [Example 47, 5,6-difluoro-3-(pyridin-3-yl)-1H-indole], the half-maximal inhibitory concentration (IC50) was found to be 2800 nM in assay [1] and 240 nM in assay [2].
Turning to `Cc1cncc(-c2c[nH]c3cc(F)ccc23)c1` [Example 48, 6-fluoro-3-(5-methylpyridin-3-yl)-1H-indole], the IC50 stood at 4500 nM in assay [1] and 620 nM in assay [2].

The values are drawn from patent publication US9758505B2, “3-(indol-3-yl)-pyridine derivatives, pharmaceutical compositions and methods for use” (ITEOS THERAPEUTICS, priority 2014, dated 2017).
